The test system of one test is HSP70. The test is described as follows: heat shock protein up-regulation by compounds – cell-based, Western blot, chemiluminescence, late-stage follow-up (AID 686975). As to conditions: cells, western blot Hsp70/Hsp90 up-regulation, stronger effect = higher value. For orientation: A western blot detects proteins with antibodies after separation by electrophoresis.
The target in test [1] is Heat shock protein HSP 90-alpha (Homo sapiens) (UniProt P07900). The test is described as above. As to conditions: cells, western blot Hsp70/Hsp90 up-regulation, stronger effect = higher value.

The source of these data is PubChem BioAssay AID686975 (The Scripps Research Institute Molecular Screening Center, 2013).

Calls of active or inactive are those of the source. How the calls were made is not given here.

On to `CC(NC(=O)c1coc(=O)c(Br)c1)C1C2CCC3CC(C2)CC31` (configuration not stated), for which the up-regulation in the test on HSP70 (high dose (five times the IC50) 9 µM, low dose (half the IC50) 0.9 µM) was < 10%; in test [1] (HSP90, high dose (five times the IC50) 9 µM, low dose (half the IC50) 0.9 µM) it was < 10%.
Take `CC(C)CNC(=O)c1coc(=O)c(Br)c1`: the up-regulation with HSP70 (high dose (five times the IC50) 37.5 µM, low dose (half the IC50) 3.8 µM) is < 10%; in test [1] (HSP90, high dose (five times the IC50) 37.5 µM, low dose (half the IC50) 3.8 µM), < 10%.
Consider `COc1ccc(NC(=O)c2coc(=O)c(Br)c2)cc1`, for which the up-regulation was < 10% in the test with HSP70 (high dose (five times the IC50) 12 µM, low dose (half the IC50) 1.2 µM) and < 10% in test [1] (HSP90, high dose (five times the IC50) 12 µM, low dose (half the IC50) 1.2 µM).
`O=C(NCc1ccco1)c1coc(=O)c(Br)c1`: the up-regulation is < 10% with HSP70 (high dose (five times the IC50) 24 µM, low dose (half the IC50) 2.4 µM) and < 10% in test [1] (HSP90, high dose (five times the IC50) 24 µM, low dose (half the IC50) 2.4 µM).
For `COC(=O)c1ccc2nc(NC(=O)C3CC3)sc2c1`, the up-regulation with HSP70 (high dose (five times the IC50) 246 µM, low dose (half the IC50) 24.6 µM) is < 10%; in test [1] (HSP90, high dose (five times the IC50) 246 µM, low dose (half the IC50) 24.6 µM) it was < 10%.
In the case of `O=C(Nc1ccccc1I)c1coc(=O)c(Br)c1`, the up-regulation in the test on HSP70 (high dose (five times the IC50) 147 µM, low dose (half the IC50) 14.7 µM) is < 10%; in test [1] (HSP90, high dose (five times the IC50) 147 µM, low dose (half the IC50) 14.7 µM), < 10%.
For the compound `CCCCCCCCOc1ccc(NC(=O)c2coc(=O)c(Br)c2)cc1`, the up-regulation in the test on HSP70 (high dose (five times the IC50) 64.5 µM, low dose (half the IC50) 6.5 µM) was < 10%; in test [1] (HSP90, high dose (five times the IC50) 64.5 µM, low dose (half the IC50) 6.5 µM), < 50% (inactive).
In the case of `COc1ccc(NC(=O)c2ccc(NC(=O)c3coc(=O)c(Br)c3)cc2)cc1`, the up-regulation in the test with HSP70 (high dose (five times the IC50) 60.5 µM, low dose (half the IC50) 6.1 µM) was < 10%; in test [1] (HSP90, high dose (five times the IC50) 60.5 µM, low dose (half the IC50) 6.1 µM), < 10%.
With `O=C(Nc1ccc(F)cc1)c1coc(=O)c(Br)c1`, the up-regulation was < 10% in the test on HSP70 (high dose (five times the IC50) 17 µM, low dose (half the IC50) 1.7 µM) and < 10% in test [1] (HSP90, high dose (five times the IC50) 17 µM, low dose (half the IC50) 1.7 µM).
Consider `CCCCOc1cccc(NC(=O)c2coc(=O)c(Br)c2)c1`, for which the up-regulation was < 10% in the test with HSP70 (high dose (five times the IC50) 114 µM, low dose (half the IC50) 11.4 µM) and < 50% (inactive) in test [1] (HSP90, high dose (five times the IC50) 114 µM, low dose (half the IC50) 11.4 µM).
Turning to `Cc1cc(NC(=O)c2coc(=O)c(Br)c2)ccc1C(C)C`, the up-regulation in the test on HSP70 (high dose (five times the IC50) 44.5 µM, low dose (half the IC50) 4.5 µM) is < 10%; in test [1] (HSP90, high dose (five times the IC50) 44.5 µM, low dose (half the IC50) 4.5 µM), < 10%.
With `CC(=O)c1ccc(NC(=O)c2coc(=O)c(Br)c2)cc1`, the up-regulation with HSP70 (high dose (five times the IC50) 53.5 µM, low dose (half the IC50) 5.4 µM) was < 10%; in test [1] (HSP90, high dose (five times the IC50) 53.5 µM, low dose (half the IC50) 5.4 µM), < 10%.
Turning to `CCOc1ccc(-c2nc(CN3CCCCC3CCn3cccn3)c(C)o2)cc1` (configuration not stated), the up-regulation is < 10% in the test with HSP70 (high dose (five times the IC50) 111 µM, low dose (half the IC50) 11.1 µM) and < 10% in test [1] (HSP90, high dose (five times the IC50) 111 µM, low dose (half the IC50) 11.1 µM).
Turning to `O=C(NCc1cccnc1)c1coc(=O)c(Br)c1`, the up-regulation is < 10% in the test with HSP70 (high dose (five times the IC50) 17.5 µM, low dose (half the IC50) 1.8 µM) and < 10% in test [1] (HSP90, high dose (five times the IC50) 17.5 µM, low dose (half the IC50) 1.8 µM).
As for `O=C(NCCc1ccc(F)cc1)c1coc(=O)c(Br)c1`, the up-regulation was < 10% in the test with HSP70 (high dose (five times the IC50) 10.5 µM, low dose (half the IC50) 1.1 µM) and < 10% in test [1] (HSP90, high dose (five times the IC50) 10.5 µM, low dose (half the IC50) 1.1 µM).
For the compound `Cc1cccc(NC(=O)c2coc(=O)c(Br)c2)n1`, the up-regulation was < 10% in the test on HSP70 (high dose (five times the IC50) 136.5 µM, low dose (half the IC50) 13.7 µM) and < 50% (inactive) in test [1] (HSP90, high dose (five times the IC50) 136.5 µM, low dose (half the IC50) 13.7 µM).
